Data set [1] has as its system Trypanosoma brucei rhodesiense (Tbr) (bloodstream trypomastigotes, STIB 900 strain). Description: In vitro antitrypanosomal activity. In kind it is cell-based. The settings on record: for IC50 / Tbr IC50: STIB 900 strain; for SI Tbr (selectivity index): cytotoxicity L6 vs Tbr. On the procedure:
(§1) After isolation, all alkaloids were tested in vitro for antiplasmodial and antitrypanosomal activity against Plasmodium falciparum (Pf) and Trypanosoma brucei rhodesiense (Tbr). Furthermore, to assess their selectivity against the parasites, cytotoxicity against L6 rat skeletal myoblasts, as mammalian control cells, was tested (Table 4).
In vitro assays for the bioactivity of the isolated Buxus-alkaloids against Tbr (bloodstream trypomastigotes, STIB 900 strain), Trypanosoma cruzi (Tc) (amastigotes, Tulahuen C4 strain), Leishmania donovani (Ldo) (amastigotes, MHOM-ET-67/L82 strain) and Pf (intraerythrocytic forms, NF54 strain), and cytotoxicity tests against mammalian cells (L6-cell line from rat-skeletal myoblasts), were performed at the Swiss Tropical and Public Health Institute (Swiss TPH, Basel, Switzerland) according to established standard protocols. […] Such a pattern of activity was also observed in other studies.

Data set [2] is described as follows: Cytotoxicity against mammalian control cells. The class given is cell-based, rat. The conditions noted are these: rat. On the procedure: as §1
(§2) In vitro assays for the bioactivity of the isolated Buxus-alkaloids against Tbr (bloodstream trypomastigotes, STIB 900 strain), Trypanosoma cruzi (Tc) (amastigotes, Tulahuen C4 strain), Leishmania donovani (Ldo) (amastigotes, MHOM-ET-67/L82 strain) and Pf (intraerythrocytic forms, NF54 strain), and cytotoxicity tests against mammalian cells (L6-cell line from rat-skeletal myoblasts), were performed at the Swiss Tropical and Public Health Institute (Swiss TPH, Basel, Switzerland) according to established standard protocols.

Data set [3] has as its system Plasmodium falciparum (Pf) (intraerythrocytic forms, NF54 strain). Description: In vitro antiplasmodial activity. The class given is cell-based. The settings on record: for SI Pf (selectivity index): cytotoxicity L6 vs Pf. On the procedure: as §1, §2
For data set [4], the system named is L6 rat skeletal myoblasts. The experiment in a line: Cytotoxicity against mammalian control cells. In kind it is cell-based. On the procedure: as §1, §2
Data set [5] relates to Plasmodium falciparum (Pf) (intraerythrocytic forms, NF54 strain). Also on record: method as in PMID 24838073. The conditions noted are these: previous study; cited from earlier work.
Data set [6] deals with Trypanosoma brucei rhodesiense (Tbr) (bloodstream trypomastigotes, STIB 900 strain). Also on record: method as in PMID 29738470. The settings on record: cited from earlier work.
Setting [7] is: Trypanosoma brucei, mean of n = 2 (fluctuation range) or * n = 3 (SD), read-out: Tbr IC50.
The mark [8] stands for this setting: Trypanosoma brucei, read-out: Tbr IC50 (in parentheses) (converted).
Setting [9] is: Plasmodium falciparum, NF54, NF54 strain, mean of n = 2 (fluctuation range) or * n = 3 (SD), read-out: Pf IC50.
Where [10] appears, read: Plasmodium falciparum, NF54, NF54 strain, read-out: Pf IC50 (in parentheses) (converted).
Where [11] appears, read: mean of n = 2 (fluctuation range) or * n = 3 (SD).
Where [12] appears, read: read-out: Tbr IC50 (in parentheses) (converted).
[13] abbreviates: NF54 strain, mean of n = 2 (fluctuation range) or * n = 3 (SD).
Where [14] appears, read: NF54 strain, read-out: Pf IC50 (in parentheses) (converted).

Here are results for five compounds from PMC8228141, “Antiprotozoal Nor-Triterpene Alkaloids from Buxus sempervirens L” (Antibiotics, 2021).

The term IC50 denotes the concentration at which inhibition is half-maximal.

Several values for one entry are separate records, joined by “and”; a condition that tells them apart may be missing. Equal values may be shown once. Read-outs that look alike come from different tables or passages of the source.

Regarding `CN[C@@H](C)[C@H]1[C@H](OC(=O)c2ccccc2)C[C@@]2(C)[C@@H]3C=C[C@H]4[C@](C)(CO)[C@@H](N(C)C)CC[C@@]45C[C@@]35CC[C@]12C` [Compound 7, Cyclomicrophyllidine-B], the IC50 is 1.9 ± 0.3 µg/mL in data set [1] (setting [7]); 3600 nM in data set [1] (setting [8]); 16 µg/mL and 29.9 µM in data set [2]; 0.11 ± 0.01 µg/mL in data set [3] (setting [9]); 200 nM in data set [3] (setting [10]). Further, the “SI Tbr (selectivity index)” value in data set [1] turned out to be 8. Moreover, the “SI Pf (selectivity index)” value in data set [3] came out at 145.

In the case of “O-tigloylcyclovirobuxeine-B [Compound 1]”, in data set [1] (setting [11]), the “Tbr IC50” value is 1.6 ± 0.55 µg/mL. The IC50 was 3200 nM in data set [1] (setting [12]); 19000 nM in data set [4] (L6 cell line, read-out: Cytotox. IC50 (in parentheses) (converted)); 1050 nM in data set [3] (setting [14]). Moreover, the “Cytotox. IC50” value in data set [4] (L6 cell line, mean of n = 2 (fluctuation range) or * n = 3 (SD)) is recorded as 9.4 ± 3.8 µg/mL. Also, the “Pf IC50” value in data set [3] (setting [13]) is on record as 0.52 ± 0.14 µg/mL. Further, the “in vitro activity against Pf” value in data set [5] is “strong and selective in vitro activity”.

Consider `CN[C@H]1CC=C2CC3=CC[C@]4(C)[C@@H]([C@H](C)NC(C)=O)CC[C@@]4(C)[C@@H]3CC[C@H]2C1(C)C` [Compound 24, N20-acetylbuxadine-G], for which the IC50 in data set [1] (setting [7]) is 0.52 ± 0.27 µg/mL; in data set [1] (setting [8]), 1300 nM; in data set [2] (L6 rat skeletal myoblast cells, L6 cell line, mean of n = 2 (fluctuation range) or * n = 3 (SD), read-out: Cytotox. IC50), 16.9 ± 1.1 µg/mL; in data set [2] (L6 rat skeletal myoblast cells, L6 cell line, read-out: Cytotox. IC50 (in parentheses) (converted)), 41000 nM; in data set [3] (setting [9]), 2.3 ± 0.27 µg/mL; in data set [3] (setting [10]), 5600 nM. The “SI Tbr (selectivity index)” value in data set [1] stood at 33. Also, in data set [3], the “SI Pf (selectivity index)” value was 7.

On to `CN[C@@H](C)[C@H]1CC[C@@]2(C)[C@@H]3CC[C@H]4C(C)(C)[C@@H](NC)[C@H](OC(=O)c5ccccc5)C[C@@]45C[C@@]35CC[C@]12C` [Compound 8, O-benzoyl-cycloprotobuxoline-D], for which the IC50 in data set [1] (setting [7]) was 0.55 ± 0.18 µg/mL; in data set [1] (setting [8]), 1100 nM; in data set [2], 6.65 µg/mL and 13.1 µM; in data set [3] (setting [9]), 0.09 ± 0.03 µg/mL; in data set [3] (setting [10]), 180 nM. Further, the “SI Tbr (selectivity index)” value in data set [1] is on record as 12. Also, in data set [3], the “SI Pf (selectivity index)” value is 74.

Regarding `CN[C@@H](C)[C@H]1[C@H](O)C[C@@]2(C)[C@@H]3C=C[C@H]4C(C)(C)[C@@H](N(C)C)CC[C@@]45C[C@@]35CC[C@]12C` [Compound 2, Cyclovirobuxeine-B], the “in vitro activity against Tbr” value in data set [6] was “highly active and selective”. Also, the “Tbr IC50” value in data set [1] (setting [11]) is listed as 0.6 ± 0.03 µg/mL. Further, the IC50 was 1500 nM in data set [1] (setting [12]), 35500 nM in data set [4] and 2600 nM in data set [3] (setting [14]). Further, in data set [4], the “Cytotox. IC50” value worked out at 14.7 ± 3.1 µg/mL. Moreover, the “Pf IC50” value in data set [3] (setting [13]) is given as 1.07 ± 0.11 µg/mL.
